Measurements reported in patent US10702521B2, “Methods for treating neisseria gonorrhoeae infection with substituted 1,2-dihydro-2A,5,8A-triazaacenaphthylene-3,8-diones” (priority 2014, dated 2020).
Counter-ions that a name gives are not always drawn. Like-named read-outs stand apart in the source and are kept apart here.

Test system: Mycobacterium tuberculosis H37Rv
Assay: Mycobacterium tuberculosis H37Rv Inhibition Assay (resazurin MIC)
Format: cell-based
[1] = H37Rv strain, six days incubation, resazurin fluorescence after 48 hours, read-out: MIC value
[2] = 144 h, read-out: MIC value, H37Rv strain, six days incubation, resazurin fluorescence after 48 hours
[3] = 144 h, H37Rv strain, six days incubation, resazurin fluorescence after 48 hours, read-out: MIC value

Structure (SMILES): O=c1ccc2ncc(=O)n3c2n1CC3CN1CCC(NCc2cc3c(cn2)OCCS3)CC1 (stereo not shown) [Example 20, 2-({4-[(2,3-Dihydro[1,4]oxathiino[2,3-c]pyridin-7-ylmethyl)amino]-1-piperidinyl}methyl)-1,2-dihydro-3H,8H-2a,5,8a-triazaacenaphthylene-3,8-dione hydrochloride]
- MIC (read-out: MIC value, H37Rv strain, six days incubation, resazurin fluorescence after 48 hours): < 2 µg/mL

Structure (SMILES): CC1(NCc2cc3c(cn2)OCCS3)CCN(C[C@@H]2Cn3c(=O)ccc4ccc(=O)n2c43)CC1 [Example 23, (1R)-1-({4-[(2,3-Dihydro[1,4]oxathiino[2,3-c]pyridin-7-ylmethyl)amino]-4-methyl-1-piperidinyl}methyl)-1,2-dihydro-4H,9H-imidazo[1,2,3-ij]-1,8-naphthyridine-4,9-dione hydrochloride]
- MIC [1]: < 2 µg/mL

Structure (SMILES): CC1(NCc2cc3c(cn2)OCS3)CCN(C[C@@H]2Cn3c(=O)ccc4ccc(=O)n2c43)CC1.Cl [Example 24, (1R)-1-({4-Methyl-4-[([1,3]oxathiolo[5,4-c]pyridin-6-ylmethyl)amino]-1-piperidinyl}methyl)-1,2-dihydro-4H,9H-imidazo[1,2,3-ij]-1,8-naphthyridine-4,9-dione hydrochloride]
- MIC [1]: < 2 µg/mL

Structure (SMILES): O=c1ccc2ncc(=O)n3c2n1C[C@H]3CN1CCC(NCc2ccc3nsnc3c2)CC1 [Example 25, (2R)-2-({4-[(2,1,3-Benzothiadiazol-5-ylmethyl)amino]-1-piperidinyl}methyl)-1,2-dihydro-3H,8H-2a,5,8a-triazaacenaphthylene-3,8-dione hydrochloride]
- MIC [2]: ≤ 1 µg/mL

Structure (SMILES): O=c1ccc2ncc(=O)n3c2n1C[C@H]3CN1CCC(NCc2cc3c(cc2F)OCCO3)CC1 [Example 26, (2R)-2-[(4-{[(7-Fluoro-2,3-dihydro-1,4-benzodioxin-6-yl)methyl]amino}-1-piperidinyl)methyl]-1,2-dihydro-3H,8H-2a,5,8a-triazaacenaphthylene-3,8-dione hydrochloride]
- MIC [2]: ≤ 1 µg/mL

Structure (SMILES): O=c1ccc2ncc(=O)n3c2n1C[C@H]3CN1CCC(NCc2cc3c(cn2)SCO3)CC1 [Example 28, (2R)-2-({4-[([1,3]Oxathiolo[4,5-c]pyridin-6-ylmethyl)amino]-1-piperidinyl}methyl)-1,2-dihydro-3H,8H-2a,5,8a-triazaacenaphthylene-3,8-dione hydrochloride]
- MIC [1]: < 2 µg/mL

Structure (SMILES): O=C1CSc2ccc(CNC3CCN(C[C@@H]4Cn5c(=O)ccc6ncc(=O)n4c65)CC3)nc2N1 [Example 29, (2R)-2-[(4-{[(3-Oxo-3,4-dihydro-2H-pyrido[3,2-b][1,4]thiazin-6-yl)methyl]amino}-1-piperidinyl)methyl]-1,2-dihydro-3H,8H-2a,5,8a-triazaacenaphthylene-3,8-dione hydrochloride]
- MIC [1]: < 2 µg/mL

Structure (SMILES): O=c1ccc2ccc(=O)n3c2n1C[C@H]3CN1CCC(NCc2ccc3c(c2)OCCO3)CC1 [Example 30, (1R)-1-({4-[(2,3-Dihydro-1,4-benzodioxin-6-ylmethyl)amino]-1-piperidinyl}methyl)-1,2-dihydro-4H,9H-imidazo[1,2,3-ij]-1,8-naphthyridine-4,9-dione hydrochloride]
- MIC [3]: < 2 µg/mL

Structure (SMILES): O=c1ccc2ccc(=O)n3c2n1C[C@H]3CN1CCC(NCc2cc(F)c3c(c2)OCCO3)CC1 [Example 31, (1R)-1-[(4-{[(8-Fluoro-2,3-dihydro-1,4-benzodioxin-6-yl)methyl]amino}-1-piperidinyl)methyl]-1,2-dihydro-4H,9H-imidazo[1,2,3-ij]-1,8-naphthyridine-4,9-dione hydrochloride]
- MIC [3]: < 2 µg/mL

Structure (SMILES): Cl.Cl.O=C1COc2cc(Cl)c(CNC3CCN(C[C@@H]4Cn5c(=O)ccc6ccc(=O)n4c65)CC3)nc2N1 [Example 32, (1R)-1-[(4-{[(7-Chloro-3-oxo-3,4-dihydro-2H-pyrido[3,2-b][1,4]oxazin-6-yl)methyl]amino}-1-piperidinyl)methyl]-1,2-dihydro-4H,9H-imidazo[1,2,3-ij]-1,8-naphthyridine-4,9-dione dihydrochloride]
- MIC [3]: < 2 µg/mL
